Assay results reported in patent publication US20250034173A1, “PYRIDO[4,3-D]PYRIMIDINE COMPOUNDS” (PFIZER INC., priority 2023, published 2025).

Key:
[1] = target: NRAS Wild Type (Homo sapiens (Human), UniProt P01111); assay: SPR binding affinity and kinetics, GTPγS-loaded NRAS Wild Type; details: GTPγS loaded protein, geomean
Description: (§1) No additional regeneration was used.
(§2) Compound dissociation was monitored for at least 3600 seconds. […] No additional regeneration was used.
(§3) The adequateness of the fit was judged by c2 values and the randomness of residue distribution.

[2] = target: HRAS Wild Type (Homo sapiens (Human), UniProt P01112); assay: SPR binding affinity and kinetics, GTPγS-loaded HRAS Wild Type; details: GTPγS loaded protein, geomean
Description: as §1, §2, §3

[3] = target: KRAS G12V (Homo sapiens (Human), UniProt P01116, G12V); assay: SPR binding affinity and kinetics, GTPγS-loaded KRAS G12V; details: GTPγS loaded protein, geomean
Description: as §1, §2, §3

[4] = target: KRAS G12D (Homo sapiens (Human), UniProt P01116, G12D); assay: SPR binding affinity and kinetics, GTPγS-loaded KRAS G12D; details: GTPγS loaded protein, geomean
Description: as §1, §2, §3

[5] = target: KRAS Wild Type (Homo sapiens (Human), UniProt P01116); assay: SPR binding affinity and kinetics, GTPγS-loaded KRAS Wild Type; details: GTPγS loaded protein, geomean
Description: as §1, §2, §3

[6] = target: KRAS G12C (Homo sapiens (Human), UniProt P01116, G12C); assay: SPR binding affinity and kinetics, GTPγS-loaded KRAS G12C; details: GTPγS loaded protein, geomean
Description: as §1, §2, §3

[7] = system: H358 (non-small cell lung cancer cell line); assay: KRAS Cell Titer Glo (CTG) cell proliferation assay, H358; format: cell-based; details: H358 cells, 7-day CTG, geomean IC50
Description: (§4) The CellTiter-Glo® (CTG) Luminescent Cell Viability Assay is a homogeneous method of determining the number of viable cells in culture based on quantitation of the ATP present, an indicator of metabolically active cells. The CTG is designed for use with multi-well formats, making it ideal for automated high-throughput screening (HTS), cell proliferation and cytotoxicity assays. The homogeneous assay procedure involves adding the single reagent (CellTiter-Glo® Reagent) directly to cells cultured in serum-supplemented medium. Cell washing, removal of medium and multiple pipetting steps are not required. The system detects as few as 15 cells per well in a 384-well format in 10 minutes after adding reagent and mixing.
(§5) Cells are grown in humidified 5% CO2 incubator at 37° C. using the culture conditions outlined below. All cell culture media reagents were purchased from Gibco. Cell lines purchased from ATCC: H358 (non-small cell lung cancer cell line), SW620 (colorectal cancer cell line), PANC08.13 (RPM11640+10% FBS+10 units/mL Insulin, pancreatic cancer cell line). Test and control compounds are dispensed as nanoliter drops according to desired final concentrations in 0.1% DMSO using Echo Acoustic Dispenser onto 384 assay plates (Corning, Cat #3764) prior to cell seeding. Cells were seeded in 40 μL volume per well at the following cell densities (cells per well): H358 (300), SW620 (750), PANC 08.13 (600). Cells are incubated in the presence of compound for 7-days. Viability is determined on Day 7 using CellTiter-Glo® (CTG) Luminescent Cell Viability Assay (Promega). CTG is added to a […] per well and incubated at room temperature for 15 minutes before luminescence is captured using an EnVision Reader with LUM384 US protocol. Data is analyzed using Activity Base to determine compound response and will be represented either as a percent effect (PCTEFF) or percent control (PCTOCTL) as described: Zero percent effect control (ZPE) (Negative control)—100% DMSO. Hundred percent effect (HPE) (Positive control)—1 uM Trametinib (GSK1120212, MEK inhibitor) (4 nl of 10 mM and 36 nl of DMSO per well). The following equations/nomenclature are used (% Effect; PCTEFF) and (% of Control; PCTOCTL): PCTEFF: 100*(Raw_Data_Value−HPE/ZPE−HPE), PCTOCTL: 100*Raw_Data_Value/User_Defined_Array), where the User_Defined_Array is either summarized HPE or ZPE.
(§6) Cells with “nd” indicate compound not tested in that particular assay at time of writing. It is to be understood that the geomean IC50 data may change slightly over time with increasing repeat data (ie: increasing n #).

[8] = system: SW620 (colorectal cancer cell line); assay: KRAS Cell Titer Glo (CTG) cell proliferation assay, SW620; format: cell-based; details: SW620 cells, 7-day CTG, geomean IC50
Description: as §4, §5, §6

[9] = system: PANC08.13 (pancreatic cancer cell line); assay: KRAS Cell Titer Glo (CTG) cell proliferation assay, PANC08.13; format: cell-based; details: PANC08.13 cells, 7-day CTG, geomean IC50
Description: as §4, §5, §6

[10] = Homo sapiens, PANC-08-13, 168 h

| Molecule | Kd [1] [nM] | Kd [2] [nM] | Kd [3] [nM] | Kd [4] [nM] | Kd [5] [nM] | Kd [6] [nM] | IC50 ([7]; Homo sapiens, NCI-H358, 168 h) [nM] | IC50 ([8]; Homo sapiens, SW-620, 168 h) [nM] | IC50 [9, 10] [nM] | IC50 [7] [nM] | IC50 [8] [nM] | IC50 [9] [nM] |
| --- | --- | --- | --- | --- | --- | --- | --- | --- | --- | --- | --- | --- |
| COC/C=C1\CN2CCC[C@@]2(COc2nc3c4c(nc(-c5c6c(cc7[nH]ncc57)CCC[C@H]6OC)c(F)c4n2)OC[C@@H]2COCCCN32)C1 (single isomer, unassigned) [Example 58, (8aS)-4-fluoro-2-{[(2Z,7aS)-2-(2-methoxyethylidene)tetrahydro-1H-pyrrolizin-7a(5H)-yl]methoxy}-5-[(5R*)-5-methoxy-5,6,7,8-tetrahydro-1H-benzo[f]indazol-4-yl]-8a,9,12,13-tetrahydro-8H,11H-7,10-dioxa-1,3,6,13a-tetraazanaphtho[1,8-ab]heptalene] | > 10000 | > 10000 | 81 | 74 | 61 | 42 | – | – | – | – | – | – |
| Fc1c(-c2c(C3CC3)c(Cl)cc3[nH]ncc23)nc2c3c(nc(OC[C@@]45CCCN4CC(=C4CC4)C5)nc13)N1CCCOC[C@H]1CO2 [Example 40, (8aS)-5-(6-chloro-5-cyclopropyl-1H-indazol-4-yl)-2-{[(7aS)-2-cyclopropylidenetetrahydro-1H-pyrrolizin-7a(5H)-yl]methoxy}-4-fluoro-8a,9,12,13-tetrahydro-8H,11H-7,10-dioxa-1,3,6,13a-tetraazanaphtho[1,8-ab]heptalene] | – | – | 6 | 4 | 6 | 7 | 52 | 60 | 13 | – | – | – |
| Fc1c(-c2c(C3CC3)c(Cl)cc3[nH]ncc23)nc2c3c(nc(OC[C@@]45CCCN4CC(=C4CCOCC4)C5)nc13)N1CCCOC[C@H]1CO2 [Example 42, (8aS)-5-(6-chloro-5-cyclopropyl-1H-indazol-4-yl)-4-fluoro-2-{[(7aS)-2-(oxan-4-ylidene)tetrahydro-1H-pyrrolizin-7a(5H)-yl]methoxy}-8a,9,12,13-tetrahydro-8H,11H-7,10-dioxa-1,3,6,13a-tetraazanaphtho[1,8-ab]heptalene] | – | – | 32 | 24 | 68 | 33 | 288 | 233 | 44 | – | – | – |
| CN(C)C(=O)/C=C1\CN2CCC[C@@]2(COc2nc3c4c(nc(-c5c(C6CC6)c(Cl)cc6[nH]ncc56)c(F)c4n2)OC[C@@H]2COCCCN32)C1 [Example 43, (2Z)-2-[(7aS)-7a-({[(8aS)-5-(6-chloro-5-cyclopropyl-1H-indazol-4-yl)-4-fluoro-8a,9,12,13-tetrahydro-8H,11H-7,10-dioxa-1,3,6,13a-tetraazanaphtho[1,8-ab]heptalen-2-yl]oxy}methyl)tetrahydro-1H-pyrrolizin-2(3H)-ylidene]-N,N-dimethylacetamide] | – | – | 677 | 493 | 742 | 539 | > 9990 | > 9990 | 5510 | – | – | – |
| OC/C=C1\CN2CCC[C@@]2(COc2nc3c4c(nc(-c5c(C6CC6)c(Cl)cc6[nH]ncc56)c(F)c4n2)OC[C@@H]2COCCCN32)C1 [Example 44, (2Z)-2-[(7aS)-7a-({[(8aS)-5-(6-chloro-5-cyclopropyl-1H-indazol-4-yl)-4-fluoro-8a,9,12,13-tetrahydro-8H,11H-7,10-dioxa-1,3,6,13a-tetraazanaphtho[1,8-ab]heptalen-2-yl]oxy}methyl)tetrahydro-1H-pyrrolizin-2(3H)-ylidene]ethan-1-ol] | – | – | 3 | 2 | 3 | 3 | 43 | 94 | 125 | – | – | – |
| C=C1CN2CCC[C@@]2(COc2nc3c4c(nc(-c5c6c(cc7[nH]ncc57)CCCC6)c(F)c4n2)OC[C@@H]2COCCCN32)C1 [Example 50, (8aS)-4-fluoro-2-{[(7aS)-2-methylidenetetrahydro-1H-pyrrolizin-7a(5H)-yl]methoxy}-5-(5,6,7,8-tetrahydro-1H-benzo[f]indazol-4-yl)-8a,9,12,13-tetrahydro-8H,11H-7,10-dioxa-1,3,6,13a-tetraazanaphtho[1,8-ab]heptalene] | – | – | 42 | 31 | 53 | 47 | 206 | 75 | 105 | – | – | – |
| C[C@@H]1CCCc2cc3[nH]ncc3c(-c3nc4c5c(nc(OC[C@@]67CCCN6C/C(=C\F)C7)nc5c3F)N3CCCOC[C@H]3CO4)c21 [Example 54, (8aS)-4-fluoro-2-{[(2Z,7aS)-2-(fluoromethylidene)tetrahydro-1H-pyrrolizin-7a(5H)-yl]methoxy}-5-[(5R)-5-methyl-5,6,7,8-tetrahydro-1H-benzo[f]indazol-4-yl]-8a,9,12,13-tetrahydro-8H,11H-7,10-dioxa-1,3,6,13a-tetraazanaphtho[1,8-ab]heptalene] | > 10000 | > 10000 | 1 | 1 | 1 | < 1 | – | – | – | – | – | – |
| C=C1CN2CCC[C@@]2(COc2nc3c4c(nc(-c5c6c(cc7[nH]nc(Cl)c57)CCC[C@H]6C)c(F)c4n2)OC[C@@H]2COCCCN32)C1 [Example 62, (8aS)-5-[(5R)-3-chloro-5-methyl-5,6,7,8-tetrahydro-1H-benzo[f]indazol-4-yl]-4-fluoro-2-{[(7aS)-2-methylidenetetrahydro-1H-pyrrolizin-7a(5H)-yl]methoxy}-8a,9,12,13-tetrahydro-8H,11H-7,10-dioxa-1,3,6,13a-tetraazanaphtho[1,8-ab]heptalene] | > 10000 | > 10000 | < 1 | < 1 | < 1 | < 1 | – | – | – | – | – | – |
| (1Z)-1-[(7aS)-7a-({[(8aS)-5-(6-chloro-5-cyclopropyl-1H-indazol-4-yl)-4-fluoro-8a,9,12,13-tetrahydro-8H,11H-7,10-dioxa-1,3,6,13a-tetraazanaphtho[1,8-ab]heptalen-2-yl]oxy}methyl)tetrahydro-1H-pyrrolizin-2(3H)-ylidene]propan-2-ol [Example 60] | > 10000 | > 10000 | 18 | 11 | 25 | 26 | – | – | – | – | – | – |
| (8aS)-5-(5-chloro-6-fluoro-1H-indazol-4-yl)-4-fluoro-2-{[(7aS)-2-methylidenetetrahydro-1H-pyrrolizin-7a(5H)-yl]methoxy}-8a,9,12,13-tetrahydro-8H,11H-7,10-dioxa-1,3,6,13a-tetraazanaphtho[1,8-ab]heptalene [Example 9] | – | – | 303 | 270 | 389 | 430 | – | – | – | 758 | 914 | 140 |
| (8aS)-5-(6-chloro-5-cyclopropyl-1H-indazol-4-yl)-4-fluoro-2-{[(1S,7aS*)-1-methoxy-6-methylidenetetrahydro-1H-pyrrolizin-7a(5H)-yl]methoxy}-8a,9,12,13-tetrahydro-8H,11H-7,10-dioxa-1,3,6,13a-tetraazanaphtho[1,8-ab]heptalene [Example 61] | – | – | 5 | 3 | 5 | 4 | – | – | – | 21 | 38 | 11 |
